According to patent publication US20210221848A1, “POLYMYXIN DERIVATIVES AND THEIR USE IN COMBINATION THERAPY TOGETHER WITH DIFFERENT ANTIBIOTICS” (priority 2014, published 2021):
Like-named read-outs stand apart in the source and are kept apart here.

What was measured:
[1] = absence of a second agent, Table 6B

Row | Substance | MIC, E. coli ATCC 25922 (E. coli; sole activity, Table 6C) [micrograms/mL] | MIC, K. pneumoniae ATCC 4352 (K. pneumoniae; sole activity, Table 6C) [micrograms/mL] | MIC, P. aeruginosa ATCC 27853 (P. aeruginosa; sole activity, Table 6C) [micrograms/mL] | MIC, P. aeruginosa CCUG 59347 (P. aeruginosa; sole activity, Table 6C) [micrograms/mL] | MIC, A. baumannii ATCC BAA-747 (A. baumannii; sole activity, Table 6C) [micrograms/mL] | MIC, A. baumannii NCTC 13424 (A. baumannii; sole activity, Table 6C) [micrograms/mL] | MIC, E. coli NCTC 13441 (E. coli; sole activity, Table 6C) [micrograms/mL] | MIC, K. pneumoniae ATCC BAA-2146 (K. pneumoniae; sole activity, Table 6C) [micrograms/mL] | MIC, E. coli ATCC 25922 (E. coli; [1]) [micrograms/mL] | MIC, E. coli NCTC 13441 (E. coli; [1]) [micrograms/mL] | MIC, K. pneumoniae ATCC 4352 (K. pneumoniae; [1]) [micrograms/mL] | MIC, K. pneumoniae ATCC BAA-2146 (K. pneumoniae; [1]) [micrograms/mL] | MIC, P. aeruginosa ATCC 27853 (P. aeruginosa; [1]) [micrograms/mL] | MIC, P. aeruginosa CCUG 59347 (P. aeruginosa; [1]) [micrograms/mL] | MIC, A. baumannii ATCC BAA-747 (A. baumannii; [1]) [micrograms/mL] | MIC, A. baumannii NCTC 13424 (A. baumannii; [1]) [micrograms/mL]
1 | 6- isobutylpiperazine- 2-carbonyl L- Thr-L-Dap- polymyxin B heptapeptide [Example D80] | 0.5 | 0.25 | 0.5 | 0.5 | 0.5 | 0.5 |  |  |  |  |  |  |  |  |  | 
2 | (S)-1-((2,3- dihydrobenzo[b][1,4] dioxin-6- yl)methyl)piperazine- 2-carbonyl polymyxin B nonapeptide [Example D58] | 0.25 | 0.25 | 0.5 | 1 | 1 | 0.5 | 0.25 | 0.25 |  |  |  |  |  |  |  | 
3 | (S)-1-((6-oxo-1- phenyl-1,6- dihydropyridin-3- yl)methyl)piperazine- 2-carbonyl Polymyxin B nonapeptide [Example D60] | 0.25 | 0.25 | 1 | 2 | 4 | 2 | 0.5 | 0.5 |  |  |  |  |  |  |  | 
4 | (S)-3-amino-2- (benzylamino)pro- panoyl Polymyxin B nonapeptide [Example D59] | 0.5 | 0.5 | 0.5 | 1 | 2 | 1 | 0.5 | 0.5 |  |  |  |  |  |  |  | 
5 | (S)-3-amino-2- (benzyloxy)propan- oyl Polymyxin B nonapeptide [Example D61] | 0.5 | 0.25 | 0.5 | 1 | 2 | 1 | 0.5 | 0.25 |  |  |  |  |  |  |  | 
6 | (S)-4-amino-2- (benzyloxy)butan- oyl Polymyxin B nonapeptide [Example D54] | 0.25 | 0.125 | 0.5 | 1 | 1 | 4 | 0.5 | 0.25 |  |  |  |  |  |  |  | 
7 | (cis-5- cyclohexylpiperidine)- 3-carbonyl L-Thr-L- Dap-polymyxin B heptapeptide [Example D43] |  |  |  |  |  |  |  |  | 2 | 4 | 2 | 4 | 1 | 2 | 4 | 4
8 | (cis-5-(2-methylpropyl) piperidine)-3-carbonyl polymyxin B nonapeptide [Example D47] |  |  |  |  |  |  |  |  | 4 | 8 | 4 | 8 | 2 | >8 | >8 | >8
9 | (cis-5-(2-methylpropyl) piperidine)-3-carbonyl polymyxin B nonapeptide [Example D48] |  |  |  |  |  |  |  |  | 0.125 | 0.125 | 0.125 | 0.25 | 0.25 | 1 | 0.5 | 0.5
10 | (cis-6-octylpiperidine)- 3-carbonyl polymyxin B nonapeptide [Example D16] |  |  |  |  |  |  |  |  | >8 | >8 | >8 | >8 | 8 | 1 | >8 | >8
11 | (cis-6-octylpiperidine)- 3-carbonyl polymyxin B nonapeptide [Example D17] |  |  |  |  |  |  |  |  | 2 | 2 | 2 | 2 | 0.5 | 0.5 | 2 | 4
12 | (trans-5-(2- methylpropyl) piperidine)-3-carbonyl polymyxin B nonapeptide [Example D49] |  |  |  |  |  |  |  |  | 8 | 8 | 4 | 8 | 2 | 4 | >8 | >8
13 | (trans-6- octylpiperidine)-3- carbonyl polymyxin B nonapeptide [Example D18] |  |  |  |  |  |  |  |  | 4 | 4 | 8 | >8 | 4 | 2 | >8 | >8
14 | (trans-6- octylpiperidine)-3- carbonyl polymyxin B nonapeptide [Example D19] |  |  |  |  |  |  |  |  | 2 | 2 | 2 | 4 | 0.5 | 1 | 2 | 
15 | trans-4- Phenylpyrrolidine-3- carbonyl polymyxin B nonapeptide [Example D1] |  |  |  |  |  |  |  |  | 4 | 4 | 2 | 1 | 0.5 | 2 | 4 | 4
